Data on three compounds can be found in the supplement of paper PMC11061612.

Test [1] deals with CPC-N (Small Cell Lung Carcinoma). Description: combination Emax (second highest fraction inhibited in the dose matrix, 72 h); higher = more inhibition; extreme values may be limits of the assay. Put shortly:
(§1)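 After 24 hours at 37°C and 5% CO2 in 1536-well plates, cells in DMEM/F12 or RPMI plus 10% FBS received two-drug dose matrices for 72 hours. Viability came from CellTiter-Glo 2.0 luminescence and was scaled as inhibition, anchored at 0 by vehicle wells and at 1 by blank wells. Combination Emax is taken as the second-highest inhibition in the matrix, and Bliss excess as the observed combination effect less EA + EB − EA·EB, with EA and EB the single-agent effects.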

Test [2] concerns KP-4 (Pancreatic Carcinoma). The description is as above. Put shortly: as §1
In the next test the test system is SK-N-SH (Neuroblastoma). The test is described as above. Put shortly: as §1
For test [3], the system named is NCI-H1876 (Small Cell Lung Carcinoma). The test is described as above. Put shortly: as §1
In test [4] the test system is SK-CO-1 (Colorectal Carcinoma). The test is described as above. Put shortly:
as §1

In test [5] the test system is SKG-IIIa (Cervical Carcinoma). The test is described as above. Put shortly:
as §1

For a further test, the system named is GAK (Melanoma). The description is as above. Put shortly:
as §1

Test [6] deals with NCI-H596 (Other Solid Carcinomas). The description is as above. Put shortly:
as §1

In test [7] the test system is HPAF-II (Pancreatic Carcinoma). Described as above. Put shortly: as §1
Test [8] deals with C-33-A (Cervical Carcinoma). Described as above. Put shortly: as §1
The subject of test [9] is RCC-JW (Kidney Carcinoma). The test is described as above. Put shortly:
as §1

The subject of test [10] is MS-1 (Small Cell Lung Carcinoma). Described as above. Put shortly: as §1
The subject of test [11] is MDA-MB-415 (Breast Carcinoma). Described as above. Put shortly:
as §1

Test [12] deals with IA-LM (Non-Small Cell Lung Carcinoma). The test is described as above. Put shortly: as §1
Test [13] has as its system COR-L88 (Small Cell Lung Carcinoma). The description is as above. Put shortly:
as §1

For test [14], the system named is KP-4 (Pancreatic Carcinoma). In words: Bliss excess, mean over the matrix (fraction); higher = more synergy. Put shortly: as §1
Test [15] deals with NCI-H1876 (Small Cell Lung Carcinoma). The description is as above. Put shortly: as §1
The subject of test [16] is NCI-H596 (Other Solid Carcinomas). The test is described as above. Put shortly: as §1
Test [17] relates to SNU-407 (Colorectal Carcinoma). The description is as above. Put shortly:
as §1

The subject of test [18] is OAW-28 (Ovarian Carcinoma). The description is as above. Put shortly:
as §1
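Throughout, for Bliss excess, mean over the matrix: after 72 h of two-drug dosing.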

With `CS(=O)(=O)CCNCc1ccc(-c2ccc3ncnc(Nc4ccc(OCc5cccc(F)c5)c(Cl)c4)c3c2)o1` [Lapatinib] + NC1(c2ccc(-c3nc4ccn5c(=O)[nH]nc5c4cc3-c3ccccc3)cc2)CCC1 [MK-2206] (first compound max 10 µM, 7x7, partner max 10 µM), the “combination Emax” value came to 0.847 in test [1]; 0.275 in [2]; 0.921 in the test with SK-N-SH (Neuroblastoma); 0.948 in [3]; 0.793 in test [4]; 0.36 in [5]. The “combination Emax” value in the test on GAK (Melanoma) came out at 0.872; in test [6] it was 0.822; in test [7], 0.402; in test [8], 0.895; in test [9] it was 0.964; in test [10], 0.926. Further, the “combination Emax” value in [11] was 0.972; in [12], 0.487; in test [13] it was 0.812. In addition, the Bliss excess was -0.0389 in test [14]; 0.0885 in [15]; -0.045 in test [16]; 0.0808 in test [17]; 0.0285 in test [18].
For `Cc1c2c(nn1C)CSCc1cc(n(C)n1)CSc1cc(c3ccccc3c1)OCCCc1c(C(=O)O)n(C)c3c-2c(Cl)ccc13` [AZD5991] + CC(=O)O[C@H]1C(=O)[C@@]2(C)[C@H]([C@H](OC(=O)c3ccccc3)[C@]3(O)C[C@H](OC(=O)[C@H](O)[C@@H](NC(=O)c4ccccc4)c4ccccc4)C(C)=C1C3(C)C)[C@]1(OC(C)=O)CO[C@@H]1C[C@@H]2O [Paclitaxel] (first compound max 1 µM, 7x7, partner max 3 µM), the “combination Emax” value in [1] came to 0.773; in [2], 0.965; with SK-N-SH (Neuroblastoma), 0.926; in [4] it was 0.858; in [5], 0.487; with GAK (Melanoma), 0.548. Moreover, the “combination Emax” value in test [7] came out at 0.53; in [8], 0.912; in [9], 0.737; in [10], 0.867; in [11], 0.838; in [12], 0.199. In addition, in [13], the “combination Emax” value came to 0.515. The Bliss excess in test [14] was -0.0288.
Consider `C[C@@H](Oc1cc(-c2cnn(C3CCNCC3)c2)cnc1N)c1c(Cl)ccc(F)c1Cl` [Crizotinib] + Cn1cnc2c(F)c(Nc3ccc(Br)cc3Cl)c(C(=O)NOCCO)cc21 [Selumetinib] (first compound max 10 µM, 7x7, partner max 10 µM), for which the “combination Emax” value in [1] came to 0.62; in test [2] it was 0.838; in the test with SK-N-SH (Neuroblastoma), 0.854; in test [4], 0.989; in test [5], 0.254; in the test with GAK (Melanoma), 0.851. Also, the “combination Emax” value in test [7] is 0.687; in test [8], 0.421; in test [9], 0.665; in [10] it was 0.791; in [11], 0.275; in test [12], 0.245. The “combination Emax” value in test [13] came out at 0.409. The Bliss excess in test [14] stood at 0.0259.
